Laboratory results taken from patent US5928933A, “Process for the enzymatic resolution of N-(alkoxycarbonyl)-4-ketoproline alkyl esters or N-(alkoxycarbonyl)-4-hydroxyproline alkyl esters using Candida antarctica lipase B” (priority 1998, dated 1999).
Read-outs that look alike come from different tables or passages of the source.

Assays:
Assay type in all cases: biochemical
[1] = molecular target: T1, Candida antartica lipase fraction B (CALB) (Moesziomyces antarcticus, UniProt P41365); details: for resolution with high enantioselectivity: CALB or any of the other commercially-available esterases, lipases, and proteases screened (Examples 7, 8); for isomer remaining: candida antartica lipase b, 19000 µM, pH 5
T1 construct: purchased Boehringer Mannheim CHIRAZYME L-2
T1 sequence (P41365 26-342): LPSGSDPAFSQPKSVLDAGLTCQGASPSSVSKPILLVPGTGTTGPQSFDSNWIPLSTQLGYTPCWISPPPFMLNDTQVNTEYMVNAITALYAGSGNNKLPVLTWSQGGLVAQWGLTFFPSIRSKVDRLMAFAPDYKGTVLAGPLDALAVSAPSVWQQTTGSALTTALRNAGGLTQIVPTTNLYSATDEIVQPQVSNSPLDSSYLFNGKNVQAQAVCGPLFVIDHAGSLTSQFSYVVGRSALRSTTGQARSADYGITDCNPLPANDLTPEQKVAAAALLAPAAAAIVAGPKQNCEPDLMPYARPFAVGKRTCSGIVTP
Procedure: Reacting a 0.10M solution of the 1:1 mixture of KDP(MEMC) and KLP(MEMC) in 0.20M succinate (pH 6.0) at 25° C. for 5 h with approximately 1-3 mg/mL of Candida antartica lipase fraction B (CALB) produced a 95% ee (substrate) of KDP(MEMC) at 51% conversion. […] The calculated enantioselectivity (E) at 51% conversion was E=81.
The enzymatic hydrolysis reaction of KDP(MEMC) and KLP(MEMC) using CALB (described above) was repeated at pH 5.0 in 0.20M acetate buffer (Example 2), and a 100% ee (substrate) of the D-isomer was obtained at 51% conversion (E=>1000); the reaction rate was approximately 50% of the rate at pH 6.0, and the slight loss of the D-isomer at pH 5.0 was again observed in the absence of added enzyme (95% recovery at pH 5.0 after 24 h with no enzyme).
The procedure described in Example I was repeated using Candida antartica lipase fraction B (CALB), except that the reaction was run in 0.200M sodium cetate (pH 5.0) instead of the 0.20M sodium succinate buffer (pH 6.0) used for Candida antartica lipase fraction B in Example 1. Aqueous solutions (5.0 mL) containing varying concentrations of a racemic mixture of N-(methoxycarbonyl)-4-keto-D,L-proline methyl ester and CALB were mixed at 15° C., 25° C., 35° C. or 45° C.
An aqueous solution (5.0 mL) containing 25 mM N-(methoxycarbonyl)-4-keto-Dproline methyl ester and 25 mM N-(methoxycarbonyl)-4-keto-L-proline methyl ester in 0.200M sodium acetate (pH 5.0) was mixed with 2.5 g of immobilized Candida antartica lipase fraction B (Boehringer Mannheim, CHIRAZYME® L-2, c.-f., C2, lyo.) at 25° C. […] The dichloromethane extract was then analyzed by chiral gas chromatography on a Chiraldex G-TA column (Advanced Separation Technologies, Inc., 50 m×0.32 mm ID) to determine the amounts of the unreacted D- and L-isomers. After 31 h, an 85% enantiomeric excess of N-(methoxycarbonyl)-4-keto-D-proline methyl ester was obtained at 41% conversion of the racemic mixture.
A 200 mL aqueous solution containing 0.200M sodium acetate (pH 5.0), 1.3325 g of Candida antartica lipase fraction B, and 4.02 g of racemic N-(methoxycarbonyl)-4-keto-D,L-proline methyl ester (100 mM) was stirred at 25° C. After 24 h, an 96% enantiomeric excess of N-(methoxycarbonyl)-4-keto-D-proline methyl ester was obtained at 50% conversion of the racemic mixture. The reaction mixture was filtered using a 10,000 MWCO membrane filter (Amicon) to remove the enzyme catalyst, and the filtrate extracted with three 200 mL portions of dichloromethane. The combined organic extracts were dried over magnesium sulfate, filtered, and the dichloromethane removed from the filtrate by rotary evaporation at reduced pressure. Residual dichloromethane was removed from the resulting colorless oil at high vacuum (50 millitorr) to produce N-(methoxycarbonyl)-4-keto-D-proline methyl ester as a white solid (1.99 g, 99% isolated yield, 99% purity (by GC), 97% ee).
An aqueous solution (2.0 mL) containing 50 mM N-(ethoxycarbonyl)-4-keto-D-proline ethyl ester and 50 mM N-(ethoxycarbonyl)-4-keto-L-proline ethyl ester in 0.200M sodium acetate (pH 5.0) and 30 mg/mL of Candida antartica lipase fraction B was mixed at 25° C. […] The dichloromethane extract was then analyzed by chiral gas chromatography on a Chiraldex G-TA column (Advanced Separation Technologies, Inc., 50 m×0.32 mm ID) to determine the amounts of the unreacted D- and L-isomers. After 24 h, a 100% enantiomeric excess of N-(ethoxycarbonyl)-4-keto-D-proline ethyl ester was obtained at 51% conversion of the racemic mixture.
An aqueous solution (1.0 mL) containing 19 mM of N-(2-phenylacetyl)-4-keto-D-proline methyl ester and 19 mM of N-(2-phenylacetyl)-4-keto-L-proline methyl ester in 0.200M sodium acetate (pH 5.0) and 25 mg/mL of Candida antartica lipase fraction B was mixed at 25° C. […]

[2] = Enzyme screens for resolution of diastereomeric mixture CHDP(MEMC)/THLP(MEMC) (Example 9); details: 0.050M each isomer, 5 h or 24 h, 5.0 to 50 mg/mL enzyme, 25° C.
Procedure: (§1) An aqueous solution (1.0 mL) containing 0.050M N-(methoxycarbonyl)-trans-4-hydroxy-L-proline methyl ester and 0.050M N-(methoxycarbonyl)-cis-4-hydroxy-D-proline methyl ester in 0.100M potassium phosphate (pH 7.0) was mixed with 5.0 to 50 mg/mL of commercial enzyme preparations (listed in the table below) at 25° C. The reactions were analyzed after 5 h or 24 h by removal of a 0.200 mL sample and mixing with an equivalent volume of 0.100M propionic acid (HPLC internal standard) in water. The resulting solution was filtered through a 10K molecular weight cut-off filter to remove the enzyme and the filtrate analyzed by high pressure liquid chromatography on a HPX-87H column (Bio-Rad, 30 cm×7.8 mm) to determine the percent conversion of each isomer of the diastereomeric mixture, and the diastereomeric excess of the N-(methoxycarbonyl)-cis-4-hydroxy-D-proline methyl ester.

[3] = Enzyme screens for resolution of diastereomeric mixture CHLP(MEMC)/THLP(MEMC) (Example 13); details: 0.050M each isomer, 5 h, 5.0 to 50 mg/mL enzyme, 25° C.
Procedure: as §1, with “solution” for “solution (1.0 mL)”, “N-(methoxycarbonyl)-cis-4-hydroxy-L-proline” for “N-(methoxycarbonyl)-cis-4-hydroxy-D-proline”, “5” for “5 h or 24”, “of” for “of each isomer of”

[4] = Enzyme screens for resolution of racemic N-(methoxycarbonyl)-4-keto-D,L-proline methyl ester (Example 1); details: 0.100M racemate, 5.0 to 50 mg/mL enzyme, 25° C., optimum
Procedure: An aqueous solution (1.0 mL) containing 0.100M racemic N-(methoxycarbonyl)-4-keto-D,L-proline methyl ester in either 0.20M sodium succinate (pH 6.0) or 0.20M sodium acetate (pH 5.0) was mixed with 5.0 to 50 mg/mL of commercial enzyme preparations (listed in the table below) at 25° C. […] The dichloromethane extract was then analyzed by chiral gas chromatography on a Chiraldex G-TA column (Advanced Separation Technologies, Inc., 50 m×0.32 mm ID) to determine the percent conversion of the racemate, and the enantiomeric excess of the N-(methoxycarbonyl)-4-keto-D-proline methyl ester.

[5] = 19 mM each isomer, 25 mg/mL CALB, pH 5.0, 25° C., 28 h
[6] = 50 mM each isomer, 30 mg/mL CALB, pH 5.0, 25° C., 24 h
[7] = 0.10M 1:1 mixture, 0.20M succinate pH 6.0, 25° C., 5 h, approximately 1-3 mg/mL CALB
[8] = 100 mM racemate, 10 mg/mL CALB, 25° C., 24 h, pH 5.0
[9] = 100 mM racemate, 20 mg/mL CALB, 45° C., 6 h, pH 5.0
[10] = 200 mM racemate, 6.7 mg/mL CALB, 35° C., 29 h, pH 5.0
[11] = 300 mM racemate, 31 mg/mL CALB, 45° C., 23 h, pH 5.0
[12] = 200 mL, 100 mM racemate, 1.3325 g CALB, pH 5.0, 25° C., 24 h
[13] = immobilized CALB 2.5 g in 5.0 mL, 25 mM each isomer, pH 5.0, 25° C., 31 h
[14] = 0.100M potassium phosphate pH 7.0

Molecule: COC(=O)C1CC(=O)CN1C(=O)Cc1ccccc1 (racemic) [N-(2-phenylacetyl)-4-keto-D,L-proline methyl ester]
- conversion of the racemic mixture [1, 5]: 38%
- enantiomeric excess of the D-isomer [1, 5]: 55%

Molecule: COC(=O)C1CC(=O)CN1C(C)=O (racemic) [N-(acetyl)-4-keto-D,L-proline methyl ester]
- resolution with high enantioselectivity [1]: could not be resolved with high enantioselectivity

Molecule: CCOC(=O)C1CC(=O)CN1C(=O)OCC (racemic) [N-(ethoxycarbonyl)-4-keto-D,L-proline ethyl ester]
- conversion of the racemic mixture [1, 6]: 51%
- enantiomeric excess of the D-isomer (KDP(EEEC)) [1, 6]: 100%

Molecule: COC(=O)C1CC(OC)(OC)CN1C(=O)OC (racemic) [N-(methoxycarbonyl)-4,4-dimethoxy-D,L-proline methyl ester]
- resolution with high enantioselectivity [1]: could not be resolved with high enantioselectivity

Molecule: COC(=O)C1CC(=O)CN1C(=O)OC (racemic) [N-(methoxycarbonyl)-4-keto-D,L-proline methyl ester]
- conversion [1, 7]: 51%
- ee (substrate) of KDP(MEMC) [1, 7]: 95%
- ee D-isomer [1, 8]: 100%
- racemate conv. [1, 8]: 51%
- ee D-isomer ([1]; 100 mM racemate, 20 mg/mL CALB, 15° C., 24 h, pH 5.0): 100%
- racemate conv. ([1]; 100 mM racemate, 20 mg/mL CALB, 15° C., 24 h, sodium acetate pH 5.0): 51%
- ee D-isomer [1, 9]: 100%
- racemate conv. [1, 9]: 50%
- conversion ([1]; 0.20M acetate buffer pH 5.0): 51%
- ee (substrate) of the D-isomer ([1]; 0.20M acetate buffer pH 5.0): 100%
- ee D-isomer [1, 10]: 97%
- racemate conv. [1, 10]: 51%
- ee D-isomer [1, 11]: 99%
- racemate conv. [1, 11]: 48%
- conversion of the racemic mixture [1, 12]: 50%
- enantiomeric excess of the D-isomer [1, 12]: 96%
- enantioselectivity (E) ([1]; at 51% conversion, pH 5.0): > 1000
- calculated enantioselectivity (E) ([1]; at 51% conversion, pH 6.0): 81
- conversion of the racemic mixture [1, 13]: 41%
- enantiomeric excess of the D-isomer [1, 13]: 85%
- reaction rate relative to the rate at pH 6.0 ([1]; pH 5.0): approximately 50%

Molecule: COC(=O)[C@H]1CC(=O)CN1C(=O)Cc1ccccc1 [N-(2-phenylacetyl)-4-keto-D-proline methyl ester]
- isomer remaining ([1]; 28 h): 97%

Molecule: COC(=O)[C@@H]1CC(=O)CN1C(=O)Cc1ccccc1 [N-(2-phenylacetyl)-4-keto-L-proline methyl ester]
- isomer remaining ([1]; 28 h): 28%

B1: protease, type VIII: commercial enzyme preparation, source Bacillus licheniformis (protein, UniProt P00780 106-379, looked up)
Subtilisin Carlsberg: AQTVPYGIPLIKADKVQAQGFKGANVKVAVLDTGIQASHPDLNVVGGASFVAGEAYNTDGNGHGTHVAGTVAALDNTTGVLGVAPSVSLYAVKVLNSSGSGSYSGIVSGIEWATTNGMDVINMSLGGASGSTAMKQAVDNAYAKGVVVVAAAGNSGSSGNTNTIGYPAKYDSVIAVGAVDSNSNRASFSSVGAELEVMAPGAGVYSTYPTNTYATLNGTSMASPHVAGAAALILSKHPNLSASQVRNRLSSTATYLGSSFYYGKGLINVEAAAQ
- conv. (percent conversion of the diastereomeric mixture) [2, 14]: 16%
- % de (diastereomeric excess of the D-isomer, CHDP(MEMC)) ([2]; pH 7.0): 16%
- conv. (percent conversion of the diastereomeric mixture) [3, 14]: 4%
- % de (diastereomeric excess of the cis-L-isomer) ([3]; pH 7.0): 6%
- conv. (percent conversion of the racemate) ([4]; 0.20M sodium succinate pH 6.0, 5 h or 0.20M sodium acetate pH 5.0, 24 h): 32%
- % ee (enantiomeric excess of the D-isomer; L-isomer with porcine liver esterase) ([4]; pH 6.0, 5 h or pH 5.0, 24 h): 23%
